Converted amounts (≈) assume the structure as drawn.
Test system: Mycobacterium tuberculosis
Test: Antitubercular activity against isoniazid-resistant Mycobacterium tuberculosis clinical isolate measured after 1 week by microplate alamar blue assay
Type: functional
Settings: 168 h, time 1 weeks

SMILES	MIC [µM]
CC(=O)c1ccc(S(=O)(=O)Nc2nnc(-c3ccc([N+](=O)[O-])o3)s2)cc1	12.5 (≈ 4.93 µg/mL)
COc1ccc(NC(=S)Nc2nnc(-c3ccc([N+](=O)[O-])s3)s2)cc1	0.2 (≈ 0.0787 µg/mL)
COc1ccc(NC(=S)Nc2nnc(-c3ccc([N+](=O)[O-])o3)s2)cc1	7.81 (≈ 2.95 µg/mL)
CO[C@H]1/C=C/O[C@@]2(C)Oc3c(C)c(O)c4c(O)c(c(/C=N/N5CCN(C)CC5)c(O)c4c3C2=O)NC(=O)/C(C)=C\C=C\[C@H](C)[C@H](O)[C@@H](C)[C@@H](O)[C@@H](C)[C@H](OC(C)=O)[C@@H]1C [RIFAMPIN]	0.5 (≈ 0.411 µg/mL)
O=[N+]([O-])c1ccc(-c2nnc(NC(=S)Nc3ccc(Cl)cc3)s2)s1	12.5 (≈ 4.97 µg/mL)
NNC(=O)c1ccncc1 [ISONIAZID]	12.5 (≈ 1.71 µg/mL)
CC[C@@H](CO)NCCN[C@@H](CC)CO [ETHAMBUTOL]	7.63 (≈ 1.56 µg/mL)
O=[N+]([O-])c1ccc(-c2nnc(NC(=S)Nc3ccc(F)cc3)s2)o1	0.78 (≈ 0.285 µg/mL)
